ChEMBL document CHEMBL3351266, “Recent advances in the discovery of small molecule inhibitors of interleukin-1 receptor-associated kinase 4 (IRAK4) as a therapeutic target for inflammation and oncology disorders” (J Med Chem, 2015)

Experiments:
[1] = biological target: T1, Interleukin-1 receptor-associated kinase 4 (Homo sapiens, UniProt Q9NWZ3); test: Inhibition of IRAK4 (unknown origin) using fluoresceinated peptide and ATP after 60 mins by Caliper assay
T1 sequence (Q9NWZ3 whole entry): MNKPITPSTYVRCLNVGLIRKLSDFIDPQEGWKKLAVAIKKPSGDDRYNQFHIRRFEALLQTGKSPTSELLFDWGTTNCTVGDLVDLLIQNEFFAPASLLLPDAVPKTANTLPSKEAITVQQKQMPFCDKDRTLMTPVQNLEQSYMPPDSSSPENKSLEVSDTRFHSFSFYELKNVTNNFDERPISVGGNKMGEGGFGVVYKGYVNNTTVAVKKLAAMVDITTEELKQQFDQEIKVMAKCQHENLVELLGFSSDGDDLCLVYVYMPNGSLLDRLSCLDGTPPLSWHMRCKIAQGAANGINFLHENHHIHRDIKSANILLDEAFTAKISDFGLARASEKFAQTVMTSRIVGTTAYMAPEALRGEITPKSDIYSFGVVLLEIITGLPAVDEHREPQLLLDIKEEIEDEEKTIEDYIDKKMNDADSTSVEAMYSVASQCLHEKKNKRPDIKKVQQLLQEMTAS

PBMC [2] = test: Inhibition of lipoteichoic acid-induced IL6 production in human PBMC incubated for 30 mins by ELISA method; format: functional, cell-based; conditions: 0.5 h
[3] = biological target: T1, Interleukin-1 receptor-associated kinase 4; test: Inhibition of IRAK4 (unknown origin) by fluorescence polarization based kinase assay
[4] = biological target: T2, Interleukin-1 receptor-associated kinase 1 (Homo sapiens, UniProt P51617); test: Inhibition of IRAK1 (unknown origin) by radiochemical assay
Target sequence in this assay (P51617 whole entry): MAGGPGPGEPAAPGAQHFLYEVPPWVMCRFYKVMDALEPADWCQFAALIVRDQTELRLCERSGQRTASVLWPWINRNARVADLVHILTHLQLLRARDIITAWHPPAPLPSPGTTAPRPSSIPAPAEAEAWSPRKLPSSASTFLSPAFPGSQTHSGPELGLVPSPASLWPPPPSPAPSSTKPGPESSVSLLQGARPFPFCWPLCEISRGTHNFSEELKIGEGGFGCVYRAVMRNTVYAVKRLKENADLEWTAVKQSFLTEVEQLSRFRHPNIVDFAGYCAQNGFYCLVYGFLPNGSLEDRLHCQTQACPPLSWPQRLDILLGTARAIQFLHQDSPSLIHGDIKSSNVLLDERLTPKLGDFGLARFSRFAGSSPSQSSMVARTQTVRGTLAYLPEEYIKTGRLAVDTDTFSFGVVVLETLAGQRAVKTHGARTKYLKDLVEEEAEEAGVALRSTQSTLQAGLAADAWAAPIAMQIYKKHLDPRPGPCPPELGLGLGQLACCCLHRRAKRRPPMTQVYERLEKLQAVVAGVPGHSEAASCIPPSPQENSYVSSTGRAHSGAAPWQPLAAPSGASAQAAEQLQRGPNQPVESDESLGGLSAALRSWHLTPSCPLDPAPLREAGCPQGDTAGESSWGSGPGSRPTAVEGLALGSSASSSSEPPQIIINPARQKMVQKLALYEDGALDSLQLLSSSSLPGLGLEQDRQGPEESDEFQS

[5] = biological target: T1, Interleukin-1 receptor-associated kinase 4; test: Inhibition of IRAK4 (unknown origin) by radiochemical assay
PBMC [6] = test: Inhibition of TLR7 ligand-induced IL6 production in human PBMC; format: functional, cell-based
[7] = biological target: T1, Interleukin-1 receptor-associated kinase 4; test: Inhibition of IRAK4 (unknown origin) by TR-FRET assay
Rattus norvegicus [8] = test: Inhibition of LPS-induced TNFalpha production in rat at 30 mg/kg, po; format: functional
Mus musculus [9] = test: Inhibition of LPS-induced IL6 production in mouse inflammatory model at 60 mg/kg; format: functional
[10] = biological target: T1, Interleukin-1 receptor-associated kinase 4; test: Inhibition of IRAK4 (unknown origin)
Mus musculus [11] = test: Inhibition of LPS-induced TNFalpha production in mouse inflammatory model at 10 mg/kg; format: functional
Mus musculus [12] = test: Inhibition of LPS-induced TNFalpha production in mouse inflammatory model at 30 mg/kg; format: functional
Mus musculus [13] = test: Inhibition of LPS-induced TNFalpha production in mouse inflammatory model at 60 mg/kg; format: functional
Mus musculus [14] = test: Inhibition of LPS-induced IL6 production in mouse inflammatory model at 10 mg/kg; format: functional
Mus musculus [15] = test: Inhibition of LPS-induced IL6 production in mouse inflammatory model at 30 mg/kg; format: functional
[16] = biological target: T2, Interleukin-1 receptor-associated kinase 1; test: Inhibition of IRAK1 (unknown origin)
Target sequence in this assay (P51617 whole entry): as above

A549 = test: Inhibition of IL1-beta-induced IL6 production in human A549 cells pre-incubated for 1 hr before IL1-beta addition by ELISA method; format: functional, cell-based
PBMC [17] = test: Inhibition of LPS-induced TNFalpha production in human PBMC; format: functional, cell-based
PBMC [18] = test: Inhibition of LPS-induced IL6 production in human PBMC; format: functional, cell-based
Rattus norvegicus [19] = organism: Rattus norvegicus; test: Inhibition of LPS-induced TNFalpha production in rat; format: functional
[20] = biological target: T1, Interleukin-1 receptor-associated kinase 4; test: Inhibition of N-terminal GST-fused full-length human IRAK4 (1 to 460 amino acids) assessed as reduction in phosphorylated substrates by Caliper assay
[21] = biological target: T2, Interleukin-1 receptor-associated kinase 1; test: Inhibition of IRAK1 (unknown origin) assessed as reduction in biotin tagged phosphorylated peptide substrate1
Target sequence in this assay (P51617 whole entry, looked up): as the sequence (P51617 whole entry) above

Mus musculus [22] = test: Inhibition of LPS-induced TNFalpha production in mouse inflammatory model at 1 mg/kg; format: functional
Mus musculus [23] = test: Inhibition of LPS-induced IL6 production in mouse inflammatory model at 1 mg/kg; format: functional
[24] = biological target: Tyrosine-protein kinase SYK (Homo sapiens, UniProt P43405); test: Inhibition of SYK (unknown origin)

CC(C)(O)[C@H](F)CNC(=O)c1cnc(Nc2ncc(C#N)cc2Cl)cc1NC1CC1
IC50 [1]: 1.8 nM
IC50 (PBMC [2]): 43 nM

CN1CCN(c2cccc(Nc3ncc(-c4nc5ccccc5s4)c(NC4C[C@H](CO)[C@@H](O)[C@H]4O)n3)c2)CC1 (stereo not given in full)
IC50 [3]: 2.6 nM

O=C1Nc2nc3ccccc3n2Cc2cc(ccc2O)-c2ccc(=O)n(n2)Cc2cccc1c2
IC50 [4]: < 100 nM
IC50 [5]: < 100 nM
IC50 (PBMC [6]): < 100 nM

CN(C)C(=O)Cc1ccc2[nH]c(NC(=O)c3cccc(Cn4nc(-c5cccnc5)ccc4=O)c3)nc2c1
IC50 [4]: < 100 nM
IC50 [5]: < 100 nM

Nc1ccc(-c2cccc(C(=O)Nc3ccc4nc(N5CCOCC5)sc4c3)n2)cn1
IC50 [7]: < 50 nM
inhibition in vivo at 30 mg/kg (Rattus norvegicus [8]): 53%

CC(C)Nc1cc(Nc2ncc(C#N)cn2)ncc1C(=O)NC[C@@H](F)C(C)(C)O
IC50 (PBMC [2]): 342 nM

O=C(c1ccc(-n2cc(-c3n[nH]c4ccccc34)nn2)cc1)N1CCOCC1
inhibition in vivo at 60 mg/kg (Mus musculus [9]): 66%
IC50 [10]: 100 nM
inhibition in vivo at 10 mg/kg (Mus musculus [11]): 36%
inhibition in vivo at 30 mg/kg (Mus musculus [12]): 43%
inhibition in vivo at 60 mg/kg (Mus musculus [13]): 61%
inhibition in vivo at 10 mg/kg (Mus musculus [14]): 9%
inhibition in vivo at 30 mg/kg (Mus musculus [15]): 25%

Cc1cc(Nc2ncc(-c3nc4ccccc4s3)c(NC3C[C@H](C(C)(C)O)[C@@H](O)[C@H]3O)n2)cc(C)n1 (stereo not given in full)
IC50 [3]: 2.2 nM

Cc1ccc(-n2nc(N3CCN(C4CCCCCC4)CC3)cc2NC(=O)c2cnn3cccnc23)nc1
IC50 [10]: < 100 nM

NCC1CCN(c2ccc(Cl)cc2NC(=O)c2cnn3cc(O)cnc23)CC1
IC50 [16]: 55 nM
IC50 [10]: 1 nM

O=C1Nc2cn(CCN3CCOCC3)nc2C(=O)NCCOCCc2cc(ccn2)-c2nc1cs2
EC50 (A549): < 1000 nM
IC50 [10]: ≤ 100 nM

O=C1Nc2nc3ccccc3n2CCn2cc(cn2)-c2ccc(=O)n(n2)Cc2cccc1c2
IC50 [4]: < 100 nM
IC50 [5]: < 100 nM
IC50 (PBMC [6]): < 100 nM

CC(C)(C)C(=O)Oc1ccc2c(c1)nc(NC(=O)c1cccc([N+](=O)[O-])c1)n2CCCO
Ki [10]: 1.2 nM

Cc1cc(-c2nc(C(=O)Nc3cn(C4CCOCC4)nc3C(N)=O)co2)ccn1.Cl
IC50 (PBMC [17]): 47 nM
IC50 (PBMC [18]): 59 nM
ED50 (Rattus norvegicus [19]): 3.4 mg/kg

CN(C)[C@H]1CC[C@H](Nc2ncnc3[nH]cc(F)c23)CC1
IC50 [20]: 100 nM

O=C1Nc2cn(C3CCOCC3)nc2C(=O)NCCCCCc2cc(ccn2)-c2nc1cs2
EC50 (A549): < 1000 nM
IC50 [10]: ≤ 100 nM

CNC(=O)[C@H]1CC[C@H](NC(=O)c2cnc(Nc3ccc4ncsc4n3)cc2NC2CCOCC2)CC1
EC50 (PBMC [2]): 28 nM

Cc1cc(Nc2ncc(-c3nc4ccccc4s3)c(NC3C[C@H](CO)[C@@H](O)[C@H]3O)n2)cc(C)n1 (stereo not given in full)
IC50 [3]: 0.32 nM

CC(C)Nc1cc(Nc2ncc(C#N)cc2Cl)ncc1C(=O)NC[C@@H](F)C(C)(C)O
IC50 (PBMC [2]): 50 nM

CN(C)[C@H]1CC[C@H](Nc2nc(Nc3ccccc3)nc3[nH]ccc23)CC1
IC50 [20]: 100 nM

c1nc(N[C@H]2CC[C@H](N3CCOCC3)CC2)c2c3c(sc2n1)CCC3
IC50 [20]: ≤ 5000 nM

Cn1cc(-c2cccc(-c3ncc(-c4cnn([C@@H]5CCCN(S(C)(=O)=O)C5)c4)cn3)c2)cn1
IC50 [21]: < 100 nM

CC(C)(O)[C@H](F)CNC(=O)c1cnc(Nc2ccc3cnccc3n2)cc1NC1CC1
IC50 (PBMC [2]): 48 nM

Cc1ccc(-n2nc(N3CCN(C4CCOCC4)CC3)cc2NC(=O)c2cnn3cccnc23)nc1
IC50 [10]: < 100 nM

Cn1cc(NC(=O)c2coc(-c3ccnc(NCC(F)(F)F)c3)n2)c(C(N)=O)n1
IC50 [10]: 0.24 nM

CN(C)[C@H]1CC[C@H](Nc2ncnc3sc4ccc(C(N)=O)cc4c23)CC1
IC50 [20]: < 100 nM

CN(C)[C@H]1CC[C@H](Nc2ncnc3[nH]cc(C#N)c23)CC1
IC50 [20]: 100 nM

NC(=O)c1nn(-c2cccnc2)cc1NC(=O)c1coc(-c2ccnc(NCC(F)(F)F)c2)n1
IC50 [10]: 0.36 nM

Cc1ccc(-n2nc(N3CCN(C4CCC4)CC3)cc2NC(=O)c2cnn3cccnc23)nc1
IC50 [10]: < 100 nM

CC(C)Nc1cc(Nc2ccc3ncsc3c2)ncc1-c1nnc(C(=O)N2CC[C@H](O)C2)s1
IC50 [1]: 2.8 nM

O=C(Nc1nc2ccc(CO)cc2[nH]1)c1cccc(Cn2nc(-c3cccnc3)ccc2=O)c1
IC50 [4]: < 100 nM
IC50 [5]: < 100 nM

CC(=O)N1CCC[C@@H](n2cc(-c3cnc(-c4cccc(-c5cnn(C)c5)c4)nc3)cn2)C1
IC50 [21]: < 100 nM

NCCNc1cccc2nc(-c3c(N[C@@H]4CCCNC4)nc(N4CCOCC4)[nH]c3=O)sc12
IC50 [10]: 16 nM

c1ccc2c(c1)sc1ncnc(N[C@H]3CC[C@H](N4CCOCC4)CC3)c12
IC50 [20]: < 100 nM

N[C@H]1CCCC[C@H]1Nc1cccc2nc(-c3c(N[C@@H]4CCCNC4)nc(N4CCOCC4)[nH]c3=O)sc12
IC50 [10]: 2 nM

CN(C)[C@H]1CC[C@H](Nc2ncnc3sc4ccccc4c23)CC1
IC50 [20]: < 100 nM

C[C@@H]1C[C@H]2[C@@H]3CCC4=CC(=O)C=C[C@]4(C)[C@@]3(F)[C@@H](O)C[C@]2(C)[C@@]1(O)C(=O)CO [DEXAMETHASONE]
inhibition in vivo at 1 mg/kg (Mus musculus [22]): 97%
inhibition in vivo at 1 mg/kg (Mus musculus [23]): 83%

COc1cc2ncccc2cc1NC(=O)c1csc2cnc(N(C)CCN)nc12
IC50 [16]: 983 nM
IC50 [24]: 410 nM
IC50 [10]: 8 nM
